Reference: EP0998924A1, “ANTITUMOR AGENTS” (MEIJI MILK PRODUCTS COMPANY LIMITED, priority 1997, dated 1999)

Test system: topoisomerase II
Assay: Measurement of topoisomerase II inhibitory activity (kDNA decatenation, agarose gel electrophoresis and densitometry)
Format: biochemical, rat
Method: Test Example 1 Measurement of Topoisomerase II Inhibitory Activity
(A) Extraction of crude topoisomerase II from rat infant brain nuclei (IBN)
IBN (11.98 mg/ml in 50% glycerol) (4.2 µl) was fractionated and subjected to centrifugation (3,000 × g, one minute), to thereby remove glycerol. The thus-obtained pellet was suspended in a nuclear extraction buffer (20 mM Tris-HCl (pH 7.5), 0.3 M NaCl, 140 mM β-Me, […], 20 mM PMSF) (10 µl), and the suspension was incubated in ice for 30 minutes. Subsequently, the suspension was subjected to centrifugation (10,000 × g, 10 minutes) and supernatant was fractionated, to thereby obtain crude topoisomerase II. The thus-obtained topoisomerase II was diluted on the basis of activity.
(B) Dilution of purified topoisomerase II (Top GEN, Inc)
Topoisomerase II (Top GEN, Inc) was diluted with the aforementioned nuclear extraction buffer, so as to attain a concentration of 0.75 unit/ml.
A test sample (1 µl) and a buffer (18 µl) containing a mixture of required amounts of Milli Q, 4 × topoisomerase II buffer (250 mM Tris-HCl (pH 7.9), 600 mM KCl, 50 mM MgCl2, 0.5 mM EDTA, 2.5 mM ATP, 150 mg/ml BSA), and k DNA (312 ng/ml) were added to an Eppendorf tube, and the resultant mixture was vortexed and lightly centrifuged. Subsequently, diluted crude topoisomerase II or diluted purified topoisomerase (1 µl) was added to the mixture, and the mixture was vortexed and lightly centrifuged. (Meanwhile, instead of such topoisomerase II, Milli Q (1 µl) and 50% DMSO (1 µl) were added to a reaction system prepared as a control, which system contains neither enzyme nor xanthone derivative, and 50% DMSO (1 µl) was added to a reaction system containing no xanthone derivative.)
The Eppendorf tube containing crude topoisomerase II and the Eppendorf tube containing purified topoisomerase II were allowed to stand for 30 minutes at 30°C and 37°C, respectively. Subsequently, SDS/PK/BJ (4 µl) was added to both of the tubes in ice, and both were allowed to stand at 50°C for five minutes, vortexed, and lightly centrifuged. After being allowed to stand again at 50°C for 30 minutes, they were vortexed and lightly centrifuged.
(C) Agarose gel electrophoresis and densitometry
The above-treated mixture was subjected to agarose gel electrophoresis (-EtBr 50 V) by use of a 1 × TBE buffer for electrophoresis (89 mM Tris Base/89 mM boric acid/2 mM EDTA2Na). After electrophoresis, gel staining was performed by use of 1 × TBE ([…]). After being decolorized, the gel was irradiated with UV rays, and bands on the gel were observed. The concentration of the agarose gel was 0.8%.
The amount of reacted enzyme was quantified by transforming the depth of color of the bands on the gel into numerical values by use of a computer (Gel Plotting Macros installed in NIH Image). Data of bands of mini-circle DNA were processed by a computer for conversion into numerical values and calculation, to thereby obtain residual activity (%).

[1] = test sample concentration 100 µg/ml
[2] = test sample concentration 500 µg/ml
[3] = test sample concentration 0.5 µg/ml
[4] = test sample concentration 1 µg/ml
[5] = test sample concentration 50 µg/ml
[6] = test sample concentration 10 µg/ml

Molecule | Residual activity (%) [1] | Residual activity (%) [2] | Residual activity (%) [3] | Residual activity (%) [6] | further results
Oc1ccc(C=CC=Cc2ccc(O)cc2)cc1 [4,4-(1,3-Butadiene-1,4-diyl)bis-phenol, 4,4-(1,3-butadiene-1,4-diyl)bis-phenol] | 28% | 0% |  |  | 
Oc1ccc([C@H]2c3c(O)cc4c5c3[C@@H]([C@@H](c3ccc(O)cc3)c3c(O)cc(O)cc3[C@@H]5[C@@H](c3ccc(O)cc3)O4)[C@@H]2c2cc(O)cc(O)c2)cc1 [Davidiol A, davidiol A] | 3% | 2% |  |  | 
Oc1ccc([C@H]2Oc3cc(O)cc4c3[C@@H]2c2cc(O)cc3c2[C@@H](c2cc(O)cc5c2[C@@H]4[C@H](c2ccc(O)cc2)O5)[C@H](c2ccc(O)cc2)O3)cc1 [α-Viniferin, α-viniferin] |  |  | 41% |  | Residual activity (%) [4]: 38%; Residual activity (%) [5]: 0%
hopeaphenol | 4% | 1% |  |  | 
kobophenol A |  |  | 68% | 59% | Residual activity (%) [5]: 18%
leachianol A | 1% | 2% |  |  | 
leachianol B | 1% | 1% |  |  | 
miyabenol A |  |  | 32% | 0% | Residual activity (%) [4]: 13%
miyabenol C |  |  | 57% | 0% | Residual activity (%) (test sample concentration 2 µg/ml): 42%
